3 substances from paper PMC3321071 (Bioorganic & medicinal chemistry letters, 2012) can be followed below.

One may read the pIC50 as the IC50 on a negative log10 scale, so that one unit is a factor of ten.

pIC50: −log10 of the molar value.

This assay has as its system gp41-mediated cell–cell fusion. Kind of assay: cell–cell fusion. The class given is cell-based, HIV-1. The conditions noted are these: read-out: IC50 in CCF assay.
H2N-Asn-[Trp]-Trp-OH: the pIC50 is 5.10 to 5.22.
The figure for H2N-Trp-[Trp]-Leu-OH is 5.30.
As to H2N-TyrMe-[Trp]-Trp-OH, the pIC50 is 5.10 to 5.22.
